Data taken from patent US11254640B2, “N-substituted indoles and other heterocycles for treating brain disorders” (The Regents of the University of California, priority 2019, dated 2022).
Where two headings read alike, the source gives them in different places.

Legend:
Format in all cases: cell-based
rat cortical neurons = test: Neurite outgrowth assay; details: Cortical neurone, 1 hour treatment at DIV 4, analysed DIV 7, fold vs DMSO control
Description: Neurite outgrowth assay. Changes in the pattern of neurite outgrowth have been implicated in neurodegenerative disorders as well as traumatic injuries. The discovery of new compounds that can positively affect neuritogenesis are important for developing new therapeutics for neurological diseases. Measurement of neurite outgrowth of rat cortical neurons using an automated image-based assay was used to determine the neuroplastic effects of the compounds of the present invention. In some embodiments, a compound of the present invention increases the pattern of neurite outgrowth. In some embodiments, a compound of the present invention increases neurite average length compared to a control. In some embodiments, a compound of the present invention increases neurite branch points compared to a control. In some embodiments, a compound of the present invention increases neurite average length and neurite branch points compared to a control.
Neurite Outgrowth Assay. Rat cortical neurons (20,000 cells/well) were freshly isolated from embryonic day 18 rats and cultured in Neurobasal Medium (+B27). The cultured cells were plated in 96 well-plates (avoiding external wells). At DIV 4, the neurons were treated with compound or control (10 μM) for 1 hour followed by complete washout of the compound. At DIV 7, the neurons were analyzed. The experiments were performed in triplicate. Neurite outgrowth was measured analyzing the following parameters: Number of Cell Bodies, total neurite length (pixels), Root Count, Segments, Extremities Count and node points. Changes in the pattern of neurite outgrowth of the neurons were analyzed by immunocytochemistry against β-III-tubulin. Pictures were acquired by the CellInsight CX7 from Thermo Fisher and analyzed using its software. Results generated in the equipment were maximum neurite length, extremity count, root count, dendrite branch points, and total neurite length. The results were compared to DMSO control, representing the fold-change in neuronal outgrowth.

5HT2A = biological target: T1, 5HT2A (Homo sapiens, UniProt P28223); test: Calcium flux assay (Calcium secondary messenger pathway); details: agonist mode
T1 construct: expressed in transfected cells
T1 sequence (P28223 whole entry): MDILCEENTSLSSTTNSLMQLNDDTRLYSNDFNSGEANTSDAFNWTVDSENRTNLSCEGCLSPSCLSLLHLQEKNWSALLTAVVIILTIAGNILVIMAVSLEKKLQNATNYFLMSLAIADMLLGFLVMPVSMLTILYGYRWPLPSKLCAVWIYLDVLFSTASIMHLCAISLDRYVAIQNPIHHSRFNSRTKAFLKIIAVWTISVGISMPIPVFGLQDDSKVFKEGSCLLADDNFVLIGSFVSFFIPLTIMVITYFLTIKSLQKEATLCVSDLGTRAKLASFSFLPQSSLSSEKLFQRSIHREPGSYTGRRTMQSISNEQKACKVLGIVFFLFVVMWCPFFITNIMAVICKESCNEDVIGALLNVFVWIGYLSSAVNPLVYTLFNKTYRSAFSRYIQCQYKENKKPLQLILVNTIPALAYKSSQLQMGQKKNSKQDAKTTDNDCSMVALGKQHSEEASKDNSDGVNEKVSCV
Description: Calcium Flux Assay. Calcium Secondary Messenger Pathway. The Calcium No Wash^PLUS assay monitors the activation of a GPCR (e.g., 5HT2A) via Gq secondary messenger signaling in a live cell, non-imaging assay format. Calcium mobilization in PathHunter® cell lines or other cell lines stably expressing Gq-coupled GPCRs (e.g., 5HT2A) is monitored using a calcium-sensitive dye that is loaded into cells. GPCR (e.g., 5HT2A) activation by a compound results in the release of calcium from intracellular stores and an increase in dye fluorescence that is measured in real-time. In some embodiments, the ability of a compound of the present invention to modulate 5-HT2A function is determined using a calcium flux assay. In some embodiments, a compound of the present invention activates a calcium flux assay.
Calcium Secondary Messenger Pathway. Cell lines were expanded from freezer stocks according to standard procedures. Cells were seeded in a total volume of 20 μL into black-walled, clear-bottom, Poly-D-lysine coated 384-well microplates and incubated at 37° C. for the appropriate time prior to testing. Assays were performed in 1× Dye Loading Buffer consisting of 1× Dye, 1× Additive A and 2.5 mM Probenecid in HBSS/20 mM Hepes. Probenicid was prepared fresh. Cells were loaded with dye prior to testing. Media was aspirated from cells and replaced with 20 μL Dye Loading Buffer. Cells were incubated for 30-60 minutes at 37° C.
For agonist determination, cells were incubated with sample to induce response. After dye loading, cells were removed from the incubator and 10 μL HBSS/20 mM Hepes was added. 3× vehicle was included in the buffer when performing agonist dose curves to define the EC80 for subsequent antagonist assays. Cells were incubated for 30 minutes at room temperature in the dark to equilibrate plate temperature. Intermediate dilution of sample stocks was performed to generate 4× sample in assay buffer. Compound agonist activity was measured on a FLIPR Tetra (MDS). Calcium mobilization was monitored for 2 minutes and 10 μL 4× sample in HBSS/20 mM Hepes was added to the cells 5 seconds into the assay.
Compound activity was analyzed using CBIS data analysis suite (ChemInnovation, CA). For agonist mode assays, percentage activity is calculated using the following formula: % Activity=100%×(mean RFU of test sample−mean RFU of vehicle control)/(mean MAX RFU control ligand−mean RFU of vehicle control).

5HT2A sensor [1] = test: 5HT2A sensor assay, antagonist mode (sLight1.3s HEK293T stable line); details: relative to 5-HT at 100 nM; for 5HT2A Antagonist mean @ 100 nM (%): 100 nM compound; for 5HT2A Antagonist mean @ 10 μM (%): 10 μM compound; for 5HT2A Antagonist mean @ 100 μM (%): 100 μM compound
Method: In some embodiments, the 5HT2A sensor assay is in an antagonist mode.
(§1) 5HT2A Sensor Assays. HEK293T (ATCC) 5HT2A sensor stable line (sLight1.3s) was generated via lentiviral transduction of HIV-EF1α-sLight1.3 and propagated from a single colony. Lentivirus was produced using 2nd generation lentiviral plasmids pHIV-EF1α-sLight1.3, pHCMV-G, and pCMV-deltaR8.2.
(§2) For the screening of the 41 compounds, sLight1.3s cells were plated in 96-well plates at a density of 40000 24-hours prior to imaging. On the day of imaging, compounds solubilized in DMSO were diluted from the 100 mM stock solution to working concentrations of 1 mM, 100 μM and 1 μM with a DMSO concentration of 1%. Immediately prior to imaging, cells growing in DMEM (Gibco) were washed 2× with HBSS (Gibco) and in agonist mode 180 μL of HBSS or in antagonist mode 160 μL of HBSS was added to each well after the final wash. For agonist mode, images were taken before and after the addition of the 20 μL compound working solution into the wells containing 180 μL HBSS. This produced final compound concentrations of 100 μM, 10 μM and 100 nM with a DMSO concentration of 0.1%. For antagonist mode, images were taken before and after addition of 20 μL of 900 nM 5-HT and again after 20 μL of the compound working solutions to produce final concentrations of 100 nM for 5HT and 100 μM, 10 μM and 100 nM for the compounds with a DMSO concentration of 0.1%. Each compound was tested in triplicates (3 wells) for each concentration (100 μM, 10 μM and 100 nM). Additionally, within each plate, 100 nM 5HT and 0.1% DMSO controls were also imaged.
(§3) Imaging was performed using the Leica DMi8 inverted microscope with a 40× objective using the FITC preset with an excitation of 460 nm and emission of 512-542 nm. For each well, the cellular membrane where the 5HT2A sensor is targeted was autofocused using the adaptive focus controls and 5 images from different regions within the well were taken with each image processed from a 2×2 binning.
(§4) For data processing, the membranes from each image was segmented and analyzed using a custom algorithm written in MATLAB producing a single raw fluorescence intensity value. For each well the 5 raw fluorescence intensity values generated from the 5 images were averaged and the change in fluorescence intensity (dFF) was calculated as: dFF=(Fsat−Fapo)/Fapo
(§5) For both agonist and antagonist modes, the fluorescence intensity values before compound addition in HBSS only were used as the Fapo values while the fluorescence intensity values after compound addition were used as the Fsat values.
(§6) For agonist mode, data are as percent activation relative to 5HT, where 0 is the average of the DMSO wells and 100 is the average of the 100 uM 5HT wells. For antagonist mode, the inactivation score was calculated as: Inactivation score=(dFFF(Compound+5HT)−dFF(5HT))/dFF(5HT)

5HT2A sensor [2] = test: 5HT2A sensor assay, agonist mode (sLight1.3s HEK293T stable line); details: percent relative to 5-HT at 100 uM; for 5HT2A Agonist mean @ 100 nM (%): 100 nM compound; for 5HT2A Agonist mean @ 10 μM (%): 10 μM compound; for 5HT2A Agonist mean @ 100 μM (%): 100 μM compound
Method: In some embodiments, hallucinogenic potential of a compound of the present invention is determined in vitro. In some embodiments, hallucinogenic potential of a compound of the present invention is determined using a 5HT2A sensor assay. In some embodiments, the 5HT2A sensor assay is in an agonist mode or an antagonist mode. In some embodiments, the 5HT2A sensor assay is in an agonist mode.
as §1, §2, §3, §4, §5, §6

[3] = read-out: Neurite Average Length @ 10 μM
[4] = read-out: Neurite Branch Points: @ 10 μM

## COc1ccc2c(ccn2CCN2CCOCC2)c1 [Example 46, 4-(2-(5-methoxy-1H-indol-1-yl)ethyl)morpholine]
Rat cortical neurons; [3]
  fold induction at 10 µM: 1.5 to 3
Rat cortical neurons; [4]
  fold induction at 10 µM: 1.5 to 3
5HT2A
  EC50: > 10 µM
5HT2A sensor [1]
  5HT2A Antagonist mean @ 100 nM (%): A (inhibits 5HT response by >100%)
  5HT2A Antagonist mean @ 10 μM (%): A (inhibits 5HT response by >100%)
  5HT2A Antagonist mean @ 100 μM (%): A (inhibits 5HT response by >100%)
5HT2A sensor [2]
  5HT2A Agonist mean @ 100 nM (%): B (does not activate 5HT2A sensor assay in agonist mode)
  5HT2A Agonist mean @ 10 μM (%): B (does not activate 5HT2A sensor assay in agonist mode)
  5HT2A Agonist mean @ 100 μM (%): B (does not activate 5HT2A sensor assay in agonist mode)

## Clc1ccc2c(ccn2CCN2CCCC2)c1 [Example 47, 5-chloro-1-(2-(pyrrolidin-1-yl)ethyl)-1H-indole]
Rat cortical neurons; [3]
  fold induction at 10 µM: 1.5 to 3
Rat cortical neurons; [4]
  fold induction at 10 µM: > 3
5HT2A
  EC50: < 10 µM
5HT2A sensor [1]
  5HT2A Antagonist mean @ 100 nM (%): A (inhibits 5HT response by >100%)
  5HT2A Antagonist mean @ 10 μM (%): A (inhibits 5HT response by >100%)
  5HT2A Antagonist mean @ 100 μM (%): A (inhibits 5HT response by >100%)
5HT2A sensor [2]
  5HT2A Agonist mean @ 100 nM (%): B (does not activate 5HT2A sensor assay in agonist mode)
  5HT2A Agonist mean @ 10 μM (%): B (does not activate 5HT2A sensor assay in agonist mode)
  5HT2A Agonist mean @ 100 μM (%): B (does not activate 5HT2A sensor assay in agonist mode)

## Clc1ccc2c(ccn2CCN2CCCCC2)c1 [Example 48, 5-chloro-1-(2-(piperidin-1-yl)ethyl)-1H-indole]
Rat cortical neurons; [3]
  fold induction at 10 µM: 1.5 to 3
Rat cortical neurons; [4]
  fold induction at 10 µM: 1.5 to 3
5HT2A
  EC50: > 10 µM
5HT2A sensor [1]
  5HT2A Antagonist mean @ 100 nM (%): A (inhibits 5HT response by >100%)
  5HT2A Antagonist mean @ 10 μM (%): A (inhibits 5HT response by >100%)
  5HT2A Antagonist mean @ 100 μM (%): A (inhibits 5HT response by >100%)
5HT2A sensor [2]
  5HT2A Agonist mean @ 100 nM (%): B (does not activate 5HT2A sensor assay in agonist mode)
  5HT2A Agonist mean @ 10 μM (%): B (does not activate 5HT2A sensor assay in agonist mode)
  5HT2A Agonist mean @ 100 μM (%): B (does not activate 5HT2A sensor assay in agonist mode)

## Clc1ccc2c(ccn2CCN2CCOCC2)c1 [Example 49, 4-(2-(5-chloro-1H-indol-1-yl)ethyl)morpholine]
Rat cortical neurons; [3]
  fold induction at 10 µM: 1.5 to 3
Rat cortical neurons; [4]
  fold induction at 10 µM: 1.5 to 3
5HT2A
  EC50: > 10 µM
5HT2A sensor [1]
  5HT2A Antagonist mean @ 100 nM (%): A (inhibits 5HT response by >100%)
  5HT2A Antagonist mean @ 10 μM (%): B (inhibits 5HT response by 75% to 100%)
  5HT2A Antagonist mean @ 100 μM (%): C (inhibits 5HT response by <75%)
5HT2A sensor [2]
  5HT2A Agonist mean @ 100 nM (%): B (does not activate 5HT2A sensor assay in agonist mode)
  5HT2A Agonist mean @ 10 μM (%): B (does not activate 5HT2A sensor assay in agonist mode)
  5HT2A Agonist mean @ 100 μM (%): A (activates 5HT2A sensor assay in agonist mode)

## FC(F)(F)Oc1ccc2c(ccn2CCN2CCCC2)c1 [Example 50, 1-(2-(pyrrolidin-1-yl)ethyl)-5-(trifluoromethoxy)-1H-indole]
Rat cortical neurons; [3]
  fold induction at 10 µM: 1.5 to 3
Rat cortical neurons; [4]
  fold induction at 10 µM: 1.5 to 3
5HT2A
  EC50: > 10 µM
5HT2A sensor [1]
  5HT2A Antagonist mean @ 100 nM (%): A (inhibits 5HT response by >100%)
  5HT2A Antagonist mean @ 10 μM (%): B (inhibits 5HT response by 75% to 100%)
  5HT2A Antagonist mean @ 100 μM (%): A (inhibits 5HT response by >100%)
5HT2A sensor [2]
  5HT2A Agonist mean @ 100 nM (%): B (does not activate 5HT2A sensor assay in agonist mode)
  5HT2A Agonist mean @ 10 μM (%): B (does not activate 5HT2A sensor assay in agonist mode)
  5HT2A Agonist mean @ 100 μM (%): A (activates 5HT2A sensor assay in agonist mode)

## FC(F)(F)Oc1ccc2c(ccn2CCN2CCCCC2)c1 [Example 51, 1-(2-(piperidin-1-yl)ethyl)-5-(trifluoromethoxy)-1H-indole]
Rat cortical neurons; [3]
  fold induction at 10 µM: 1.5 to 3
Rat cortical neurons; [4]
  fold induction at 10 µM: 1.5 to 3
5HT2A
  EC50: > 10 µM
5HT2A sensor [1]
  5HT2A Antagonist mean @ 100 nM (%): A (inhibits 5HT response by >100%)
  5HT2A Antagonist mean @ 10 μM (%): A (inhibits 5HT response by >100%)
  5HT2A Antagonist mean @ 100 μM (%): A (inhibits 5HT response by >100%)
5HT2A sensor [2]
  5HT2A Agonist mean @ 100 nM (%): B (does not activate 5HT2A sensor assay in agonist mode)
  5HT2A Agonist mean @ 10 μM (%): B (does not activate 5HT2A sensor assay in agonist mode)
  5HT2A Agonist mean @ 100 μM (%): B (does not activate 5HT2A sensor assay in agonist mode)
